# Assay results: US10988459B2 (priority 2015, dated 2021)
# Target: human RIP1 kinase domain (2-375) (Homo sapiens (Human), UniProt Q13546)
# Assay: biochemical
# Format: biochemical
# Conditions: human RIP1 kinase domain (2-375), 50 uM ATP, 2 hours incubation, Transcreener ADP assay; read-out: RIP1 Ki
# Method in brief: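 50 nM purified kinase domain from baculovirus-infected insect cells, incubated 2 h with compound in 50 mM Hepes pH 7.5, 30 mM MgCl2, 1 mM DTT, 50 uM ATP, 0.002% Brij-35, 0.5% DMSO. ADP formation read by Transcreener FP at 633 nm excitation. Ki^app fitted with the Morrison tight-binding equation.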
# human RIP1 kinase domain (2-375), sequence (Q13546 2-375): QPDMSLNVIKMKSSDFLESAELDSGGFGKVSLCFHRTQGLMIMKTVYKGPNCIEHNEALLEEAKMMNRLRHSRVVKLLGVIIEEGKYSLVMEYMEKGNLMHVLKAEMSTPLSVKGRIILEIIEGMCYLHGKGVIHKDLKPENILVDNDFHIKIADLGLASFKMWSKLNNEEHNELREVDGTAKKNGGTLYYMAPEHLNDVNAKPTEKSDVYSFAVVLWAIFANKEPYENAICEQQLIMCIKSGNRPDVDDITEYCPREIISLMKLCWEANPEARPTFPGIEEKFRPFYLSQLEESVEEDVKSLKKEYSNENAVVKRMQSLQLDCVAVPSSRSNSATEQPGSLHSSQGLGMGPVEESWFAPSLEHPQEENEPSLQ
row,Structure (SMILES),Ki [nM]
1,"CN1C(=O)[C@@H](NC(=O)c2nnn3c2C[C@@H](C(F)(F)F)CC3)COc2ccccc21 [Example 150, (S)-N-((S)-5-methyl-4-oxo-2,3,4,5-tetrahydrobenzo[b][1,4]oxazepin-3-yl)-5-(trifluoromethyl)-4,5,6,7-tetrahydro-[1,2,3]triazolo[1,5-a]pyridine-3-carboxamide]",125
2,"CN1C(=O)[C@@H](NC(=O)c2ncn(Cc3ccccc3)n2)CCn2ccnc21 [Example 151, (S)-1-benzyl-N-(9-methyl-8-oxo-6,7,8,9-tetrahydro-5H-imidazo[1,2-a][1,3]diazepin-7-yl)-1H-1,2,4-triazole-3-carboxamide]",26.6
3,"CN1C(=O)[C@@H](NC(=O)c2ncn(Cc3ccccc3)n2)CCCn2nccc21 [Example 155, (S)-1-benzyl-N-(4-methyl-5-oxo-4,5,6,7,8,9-hexahydropyrazolo[1,5-a][1,3]diazocin-6-yl)-1H-1,2,4-triazole-3-carboxamide]",38.2
4,"CN1C(=O)C(NC(=O)c2cc3c(cn2)cnn3[C@H]2CCOC2)COc2ccccc21 (stereo partly drawn) [Example 156, N-(5-methyl-4-oxo-2,3,4,5-tetrahydrobenzo[b][1,4]oxazepin-3-yl)-1-((S)-tetrahydrofuran-3-yl)-1H-pyrazolo[4,3-c]pyridine-6-carboxamide]",68.3
5,"Cc1cc2n(n1)CC[C@H](NC(=O)c1ncn([C@H](C)c3ccccc3)n1)C(=O)N2C [Example 158, N-((S)-2,4-dimethyl-5-oxo-5,6,7,8-tetrahydro-4H-pyrazolo[1,5-a][1,3]diazepin-6-yl)-1-((R)-1-phenylethyl)-1H-1,2,4-triazole-3-carboxamide]",986
6,"CN1C(=O)[C@@H](NC(=O)c2ncn(CC3CCCC3)n2)CCn2nc(C3CC3)cc21 [Example 160, (S)-1-(cyclopentylmethyl)-N-(2-cyclopropyl-4-methyl-5-oxo-5,6,7,8-tetrahydro-4H-pyrazolo[1,5-a][1,3]diazepin-6-yl)-1H-1,2,4-triazole-3-carboxamide]",24.5
7,"CN1C(=O)[C@@H](NC(=O)c2cc3c(cn2)CO[C@]3(C)CC(F)(F)F)COc2ccccc21 [Example 161, (R)-1-methyl-N-((S)-5-methyl-4-oxo-2,3,4,5-tetrahydrobenzo[b][1,4]oxazepin-3-yl)-1-(2,2,2-trifluoroethyl)-1,3-dihydrofuro[3,4-c]pyridine-6-carboxamide]",8.9
8,"Cc1cc2n(n1)CC[C@H](NC(=O)c1ncn(CC3CCCC3)n1)C(=O)N2C [Example 162, (S)-1-(cyclopentylmethyl)-N-(2,4-dimethyl-5-oxo-5,6,7,8-tetrahydro-4H-pyrazolo[1,5-a][1,3]diazepin-6-yl)-1H-1,2,4-triazole-3-carboxamide]",36.3
9,"Cc1cc2n(n1)CC[C@H](NC(=O)c1ncn(CC3CCCCC3)n1)C(=O)N2C [Example 163, (S)-1-(cyclohexylmethyl)-N-(2,4-dimethyl-5-oxo-5,6,7,8-tetrahydro-4H-pyrazolo[1,5-a][1,3]diazepin-6-yl)-1H-1,2,4-triazole-3-carboxamide]",22.3
10,"Cc1cc2n(n1)CC[C@H](NC(=O)c1ncn(Cc3ccc(F)cc3)n1)C(=O)N2C [Example 164, (S)-N-(2,4-dimethyl-5-oxo-5,6,7,8-tetrahydro-4H-pyrazolo[1,5-a][1,3]diazepin-6-yl)-1-(4-fluorobenzyl)-1H-1,2,4-triazole-3-carboxamide]",24.5
11,"Cc1cc2n(n1)CC[C@H](NC(=O)c1ncn([C@@H](C)c3ccccc3)n1)C(=O)N2C [Example 165, N-((S)-2,4-dimethyl-5-oxo-5,6,7,8-tetrahydro-4H-pyrazolo[1,5-a][1,3]diazepin-6-yl)-1-((S)-1-phenylethyl)-1H-1,2,4-triazole-3-carboxamide]",47.4
12,"Cc1cnn2c1N(C)C(=O)[C@@H](NC(=O)c1ncn(Cc3ccccc3)n1)CC2 [Example 166, (S)-1-benzyl-N-(3,4-dimethyl-5-oxo-5,6,7,8-tetrahydro-4H-pyrazolo[1,5-a][1,3]diazepin-6-yl)-1H-1,2,4-triazole-3-carboxamide]",20
13,"CN1C(=O)[C@@H](NC(=O)c2cc3c(cn2)CO[C@@]3(C)CC(F)(F)F)COc2ccccc21 [Example 168, (S)-1-methyl-N-((S)-5-methyl-4-oxo-2,3,4,5-tetrahydrobenzo[b][1,4]oxazepin-3-yl)-1-(2,2,2-trifluoroethyl)-1,3-dihydrofuro[3,4-c]pyridine-6-carboxamide]",269
14,"CN1C(=O)[C@@H](NC(=O)c2cc3c(cn2)CO[C@]32CCOC2)COc2ccccc21 [Example 169, (R)-N-((S)-5-methyl-4-oxo-2,3,4,5-tetrahydrobenzo[b][1,4]oxazepin-3-yl)-4,5-dihydro-2H,3′H-spiro[furan-3,1′-furo[3,4-c]pyridine]-6′-carboxamide]",19.3
15,"Cc1cc2n(n1)CC[C@H](NC(=O)c1ncn(Cc3ccc(Cl)cc3)n1)C(=O)N2C [Example 170, (S)-1-(4-chlorobenzyl)-N-(2,4-dimethyl-5-oxo-5,6,7,8-tetrahydro-4H-pyrazolo[1,5-a][1,3]diazepin-6-yl)-1H-1,2,4-triazole-3-carboxamide]",13.2
16,"CN1C(=O)[C@@H](NC(=O)c2ncn(Cc3ccccc3)n2)CCn2nc(C3CC3)cc21 [Example 171, (S)-1-benzyl-N-(2-cyclopropyl-4-methyl-5-oxo-5,6,7,8-tetrahydro-4H-pyrazolo[1,5-a][1,3]diazepin-6-yl)-1H-1,2,4-triazole-3-carboxamide]",16.2
17,"Cc1cc2n(n1)CC[C@H](NC(=O)c1ncn(Cc3ccccc3)n1)C(=O)N2C [Example 172, (S)-1-benzyl-N-(2,4-dimethyl-5-oxo-5,6,7,8-tetrahydro-4H-pyrazolo[1,5-a][1,3]diazepin-6-yl)-1H-1,2,4-triazole-3-carboxamide]",22.9
18,"CC(C)C1CCc2cnc(C(=O)N[C@H]3COc4ccccc4N(C)C3=O)n2C1 (stereo partly drawn) [Example 173, 6-isopropyl-N—((S)-5-methyl-4-oxo-2,3,4,5-tetrahydrobenzo[b][1,4]oxazepin-3-yl)-5,6,7,8-tetrahydroimidazo[1,5-a]pyridine-3-carboxamide]",39.1
19,"CN1C(=O)[C@@H](NC(=O)c2n[nH]c3c2CC2(CC3)CC2)COc2ccccc21 [Example 174, (S)—N-(5-methyl-4-oxo-2,3,4,5-tetrahydrobenzo[b][1,4]oxazepin-3-yl)-1′,4′,6′,7′-tetrahydrospiro[cyclopropane-1,5′-indazole]-3′-carboxamide]",166
20,"CN1C(=O)C(NC(=O)c2nnc(Cc3ccccc3)[nH]2)CCn2ccnc21 (stereo not drawn) [Example 175, 5-benzyl-N-(9-methyl-8-oxo-6,7,8,9-tetrahydro-5H-imidazo[1,2-a][1,3]diazepin-7-yl)-4H-1,2,4-triazole-3-carboxamide]",212
21,"CN1C(=O)C(NC(=O)c2n[nH]c3c2C[C@@H](C(F)(F)F)CC3)CCn2ccnc21 (stereo partly drawn) [Example 176, (5S)—N-(9-methyl-8-oxo-6,7,8,9-tetrahydro-5H-imidazo[1,2-a][1,3]diazepin-7-yl)-5-(trifluoromethyl)-4,5,6,7-tetrahydro-1H-indazole-3-carboxamide]",1400
22,"CN1C(=O)C(NC(=O)c2ccn(Cc3ccc(F)c(F)c3)n2)CCn2ccnc21 (stereo not drawn) [Example 177, 1-(3,4-difluorobenzyl)-N-(9-methyl-8-oxo-6,7,8,9-tetrahydro-5H-imidazo[1,2-a][1,3]diazepin-7-yl)-1H-pyrazole-3-carboxamide]",1900
23,"CN1C(=O)C(NC(=O)c2cn(Cc3ccc(F)c(F)c3)cn2)CCn2ccnc21 (stereo not drawn) [Example 178, 1-(3,4-difluorobenzyl)-N-(9-methyl-8-oxo-6,7,8,9-tetrahydro-5H-imidazo[1,2-a][1,3]diazepin-7-yl)-1H-imidazole-4-carboxamide]",477
24,"CC(C)n1ncc2c1OC[C@H](NC(=O)c1nnc(Cc3ccccc3)[nH]1)C(=O)N2C [Example 179, (S)-5-benzyl-N-(1-isopropyl-4-methyl-5-oxo-4,5,6,7-tetrahydro-1H-pyrazolo[3,4-b][1,4]oxazepin-6-yl)-4H-1,2,4-triazole-3-carboxamide]",254
25,"CC(C)n1ncc2c1OC[C@H](NC(=O)c1cn(Cc3ccc(F)c(F)c3)cn1)C(=O)N2C [Example 180, (S)-1-(3,4-difluorobenzyl)-N-(1-isopropyl-4-methyl-5-oxo-4,5,6,7-tetrahydro-1H-pyrazolo[3,4-b][1,4]oxazepin-6-yl)-1H-imidazole-4-carboxamide]",8500
26,"CN1C(=O)[C@@H](NC(=O)c2nnc(Cc3ccccc3)[nH]2)COc2c1cnn2C [Example 181, (S)-5-benzyl-N-(1,4-dimethyl-5-oxo-4,5,6,7-tetrahydro-1H-pyrazolo[3,4-b][1,4]oxazepin-6-yl)-4H-1,2,4-triazole-3-carboxamide]",93.6
27,"CN1C(=O)[C@@H](NC(=O)c2ccn(Cc3ccc(F)c(F)c3)n2)COc2c1cnn2C [Example 182, (S)-1-(3,4-difluorobenzyl)-N-(1,4-dimethyl-5-oxo-4,5,6,7-tetrahydro-1H-pyrazolo[3,4-b][1,4]oxazepin-6-yl)-1H-pyrazole-3-carboxamide]",2300
28,"CN1C(=O)[C@@H](NC(=O)c2cn(Cc3ccc(F)c(F)c3)cn2)COc2c1cnn2C [Example 183, (S)-1-(3,4-difluorobenzyl)-N-(1,4-dimethyl-5-oxo-4,5,6,7-tetrahydro-1H-pyrazolo[3,4-b][1,4]oxazepin-6-yl)-1H-imidazole-4-carboxamide]",1600
29,"CCC1Cc2c(C(=O)N[C@H]3COc4ccccc4N(C)C3=O)n[nH]c2CO1 (stereo partly drawn) [Example 186, 5-ethyl-N—((S)-5-methyl-4-oxo-2,3,4,5-tetrahydrobenzo[b][1,4]oxazepin-3-yl)-1,4,5,7-tetrahydropyrano[3,4-c]pyrazole-3-carboxamide]",135
30,"CC1CCn2nnc(C(=O)N[C@H]3COc4ccccc4N(C)C3=O)c2C1 (stereo partly drawn) [Example 187, 5-methyl-N—((S)-5-methyl-4-oxo-2,3,4,5-tetrahydrobenzo[b][1,4]oxazepin-3-yl)-4,5,6,7-tetrahydro-[1,2,3]triazolo[1,5-a]pyridine-3-carboxamide]",210
